# PMC6054100, “Exploring the chemical space of the lysine-binding pocket of the first kringle domain of hepatocyte growth factor/scatter factor (HGF/SF) yields a new class of inhibitors of HGF/SF-MET binding” (Chemical Science, 2015)
# What was measured:
# NK1 [1] = molecular target: T1, NK1 (Homo sapiens, UniProt P14210); assay: Binding of lysine analogues to NK1 (unpublished data); conditions: A. G. S.
# [2] = test system: MET downstream signalling (Erk 1/2, Akt) in Vero cells; assay: MET, Erk1/2 and Akt phosphorylation assay in NK1-stimulated Vero cells (Western blot); type: cell-based; conditions: Vero cells stimulated with NK1
# Description: We evaluated the effect of piperazine-like compounds and MB605 on Vero cells by assessing MET, Erk 1/2 and Akt phosphorylation in response to stimulation using […] NK1. MB605 was dissolved in DMSO, which limited the range of concentrations tested to ≤1 mM in order to avoid solvent effects on cell function/viability. The water-soluble piperazine-like compounds, in contrast, could be tested at concentrations up to 100 mM.
# Fig. 6 Biological activity of the piperazine-like compounds and MB605. (a–e) Vero cells expressing the receptor endogenously on their cell surface were stimulated with HGF/SF or NK1 and phosphorylation of MET and downstream targets Akt and Erk1/2 was analysed. Piperazine-like compounds HEPES (a), (H)EPPS (b), MES (c), MOPS (d) and CAPS (e) were tested at 100 mM (lanes 4), 10 mM (lanes 5), 1 mM (lanes 6) and 100 μM (lanes 7) concentration in the presence of 1 nM NK1. To control for activating or inhibiting effects of the compounds independently of MET, piperazine-like compounds were tested on cells at 100 mM without stimulation by NK1 (lanes 3). Biological activity of MB605 (f) was investigated at 1 mM (lane 5), 100 μM (lane 6) and 10 μM (lane 7) in the presence of a constant concentration of DMSO (0.1%). A solvent control (0.1% DMSO, lane 3) was included in order to account for the effect of DMSO on the cells. A positive control (1 nM NK1 in the presence of 0.1% DMSO) is shown in lane 4. In all experiments, un-stimulated cells served as negative control (lanes 1) while cells stimulated with 1 nM NK1 served as positive control (lanes 2).
# The ability of MB605 and the piperazine-like compounds to inhibit MET, Erk and Akt phosphorylation in the presence of NK1 was tested using mammalian Vero cells as described by Ferraris et al.[47] and further details are given in the ESI ^† section of the manuscript. […]
# For MET, Erk1/2 and Akt phosphorylation assays, Vero cells were seeded at 2.1 × 10^5 cells we ll -1 (2 ml we ll -1) in 6-well plates and grown to 90% conf luence in 10% FCS/DMEM media and then switched to serum-free medium (to avoid any growth f actors present in the serum).
# 24 hours post starvation the cells were stimulated for 5 min at 37°C with each individual piperazine -like compounds as well as with NK1 (1 nM) pre-incubated with different concentrations of the piperazine- like compounds (100 mM, 10 mM, 1 mM and 100 μM) or MB605 (1 mM, 100 μM and 10 μM). Stimulations with either 0. 1% DMS O or 1 nM of NK1 […]
# solution were used as a negative and a positive control, respectively. The cells were then washed in PBS buffer, lysed on ice f or 30 min and frozen at -80 °C until further analysis. For
# [3] = molecular target: T2, lysine-binding pocket of the kringle domain of NK1 (Homo sapiens, UniProt P14210); assay: Soaking into NK1 apo crystals, X-ray crystallography; conditions: soaked into NK1 apo crystals
# T2 construct: made in house; host or cells: Pichia pastoris
# Description: Next, three classes of piperazine-like sulphonated compounds containing piperazine ((H)EPPS and PIPES), morpholine (MES and MOPS), or cyclohexane (CHES and CAPS) rings were studied for their binding to NK1 (Table 1), alongside another five sulphonated compounds selected from a chemical fragment library (Table 2).
# NK1 buffered in 150 mM NaCl, 50 mM Tris, pH 7.5 (apo-NK1 and all soaking experiments) was concentrated to ∼20 mg mL^–1 using a Vivaspin device with a 10 kDa cut-off membrane (Sartorius Biolab). Crystallisation was carried out in Linbro plates by the vapour diffusion hanging drop technique using a protein : precipitant ratio of 1 : 1 at 20 °C. Previously NK1 has been crystallised in 18% PEG 4000, 200 mM sodium acetate and 150 mM Tris pH 8.5 as precipitant.[19] Here final crystallisation conditions (19% PEG 4000, 200 mM sodium acetate and 150 mM Tris pH 7.5) were optimised around those to achieve high-resolution apo structure. Details of compound soaking, X-ray data collection and structure determination are given in the ESI ^† section of the manuscript. […]
# For this, 1 M stock solutions were prepared in DMSO (fragments) or water (piperazine- like compounds) and the pH adjusted to a value within their buffering range with either HCl or NaOH. The seven piperazine- like compounds and their respective pH are: HEPES (pH 7.6), (H)EPPS (pH 7.4), PIPES (pH 7.0), MES (pH 5.8), MOPS (pH 7.2), CHES (pH 8.6) and CAPS (pH 9.7). Secondary stocks of the compounds at 50 mM were prepared in the […]
# respective mother liquor and soaked for up to 48 hours.
# MB605 was solubilised in 50% DMSO at 20 mM concentration (1% f inal DMSO concentration in the drop) in order to minimize adverse effects of DMSO on the protein crystal. 25% ethylene glycol was used as the cryoprotective agent.
# X-ray data collection and processing
# X-ray datasets were collected either at the European Synchrotron Radiation Facility (ESRF, Grenoble, France), the Diamond Light Source (DLS, Oxford, UK) or in-house using the X8 PROTEUM (Bruker AXS) at the Department of Biochemistry, University of Cambridge.
# Datasets of at least 180° were collected. Raw data collected at synchrotrons were integrated, merged, scaled and reduced using DENZO and […].2 Raw data […]
# collected in- house were integrated, merged, scaled and reduced using the PROTEUM 2 software package .3 The CCP4 suite of crystallographic programs (Collaborative
# NK1 [4] = molecular target: T1, NK1; assay: SPR steady-state binding to immobilized NK1 (Biacore T100); design: made in house; host or cells: Pichia pastoris; conditions: steady-state binding constants; piperazine-like compounds; immobilized NK1, PBS pH 7.4; read-out: KD in SPR
# Description: Binding constants of piperazine-like compounds and fragments were determined using a Biacore T100 instrument. NK1 was immobilized on a CM5 chip by amine coupling to a density of 6000 RU. Compounds were stored as 100 mM stock solutions in water and serial dilutions were prepared in the running buffer (PBS pH 7.4, 0.05% Tween 20). The compound solutions were injected onto the surface of the chip at a flow rate of 30 μL min^–1, contact time was 1 min and dissociation time 1 min. Sensorgrams were analysed using the Biacore T100 evaluation software and the binding constants determined.
# NK1 [5] = molecular target: T1, NK1; assay: 1H-15N TROSY-HSQC NMR chemical shift titration of 15N-labelled NK1; type: binding; design: made in house; host or cells: Pichia pastoris; conditions: steady-state binding constants; piperazine-like compounds; 0.18 mM NK1, pH 7.2, 310 K; read-out: KD in NMR
# Description: Ligand screening was performed by monitoring the chemical shift variations in ^1H-^15N TROSY-HSQC NMR spectra of the uniformly [^15N]-labelled NK1 protein (Fragai et al. 2015, in prep.) upon the addition of increasing concentrations of the investigated compounds.[43]–[45] The experiments were performed using 0.18 mM protein samples in 25 mM Tris, 100 mM NaCl and 0.01% sodium azide, at pH 7.2 with 10% D2O. The spectra were recorded at 310 K on a Bruker AVANCE 900 MHz spectrometer equipped with a TXI cryo-probe. Sample solutions were prepared from 1 M or 100 mM DMSO stock solutions of the ligands. The dissociation constant values (KD) were calculated by plotting the weighted average ^1H and ^15N chemical shifts of the residues experiencing significant variations as a function of ligand concentration added during the titration and considering the one site binding model.[46]
# NK1-MET complexes = test system: NK1-MET complexes; design: method as in Lauris Kemp, personal communication; conditions: buffers containing 50 mM HEPES; ref Lauris Kemp, personal communication; cited from earlier work
# T2 sequence (P14210 32-210 isoform P14210-6 limits assumed): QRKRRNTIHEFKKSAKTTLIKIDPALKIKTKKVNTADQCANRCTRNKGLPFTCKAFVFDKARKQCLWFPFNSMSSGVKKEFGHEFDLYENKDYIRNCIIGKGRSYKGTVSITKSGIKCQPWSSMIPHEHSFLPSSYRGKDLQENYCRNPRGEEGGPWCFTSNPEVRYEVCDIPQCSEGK
# T1 sequence (P14210 32-210 isoform P14210-6 limits assumed): as above
binding to NK1 (NK1 [1]),binding in the lysine-binding pocket (crystal structure) [3],Kd (NK1 [4]) [µM],Kd (NK1 [5]) [µM],SMILES,Inhibition of phosphorylation of Erk 1/2 and Akt (S473) ([2]; compound 10 mM (lane 5)),Inhibition of phosphorylation of Erk 1/2 and Akt (S473) ([2]; compound 100 mM (lanes 4)),formation of NK1-MET complexes (NK1-MET complexes)
neither EACA or AMCHA binds NK1,–,–,–,"NCCCCCC(=O)O [EACA, ε-aminocaproic acid]",–,–,–
–,bind the lysine-binding pocket of NK1,1200 ± 200,1400 ± 500,O=S(=O)(O)CCCNC1CCCCC1 [CAPS],active,Inhibition of phosphorylation,–
–,bind the lysine-binding pocket of NK1,24300 ± 3100,13400 ± 5700,O=S(=O)(O)CCN1CCOCC1 [MES],–,Inhibition of phosphorylation,–
neither EACA or AMCHA binds NK1,–,–,–,"NC[C@H]1CC[C@H](C(=O)O)CC1 [AMCHA, trans-4-(aminomethyl)cyclohexane-1-carboxylic acid]",–,–,–

SMILES,binding to NK1 (NK1 [1]),binding in the lysine-binding pocket (crystal structure) [3],Kd (NK1 [4]) [µM],Kd (NK1 [5]) [µM],Inhibition of phosphorylation of Erk 1/2 and Akt (S473) ([2]; compound 10 mM (lane 5)),Inhibition of phosphorylation of Erk 1/2 and Akt (S473) ([2]; compound 100 mM (lanes 4)),formation of NK1-MET complexes (NK1-MET complexes)
"O=S(=O)(O)CCN1CCN(CCO)CC1 [HEPES, 4-(2-hydroxyethyl)-1-piperazineethanesulfonic acid]",–,bound into the lysine-binding pocket,2400 ± 400,3300 ± 400,–,Inhibition of phosphorylation,inhibited
